How the values were obtained:
Experiment in all cases: pTyr-Var library bacterial peptide display kinase screen (enrichment scores)
c-Src kinase domain = c-Src kinase domain (Homo sapiens, UniProt P12931); format: biochemical; conditions: sheet "Src";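 also: log2 fold change in enrichment of variant over reference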
EPHB2 kinase domain = format: biochemical, human; conditions: sheet EPHB2
c-Abl kinase domain = target: T1, c-Abl kinase domain (Mus musculus, UniProt P00520); format: biochemical;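 also: log2 fold change in enrichment of variant over reference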
T1 sequence (P00520 242-493 limits assumed): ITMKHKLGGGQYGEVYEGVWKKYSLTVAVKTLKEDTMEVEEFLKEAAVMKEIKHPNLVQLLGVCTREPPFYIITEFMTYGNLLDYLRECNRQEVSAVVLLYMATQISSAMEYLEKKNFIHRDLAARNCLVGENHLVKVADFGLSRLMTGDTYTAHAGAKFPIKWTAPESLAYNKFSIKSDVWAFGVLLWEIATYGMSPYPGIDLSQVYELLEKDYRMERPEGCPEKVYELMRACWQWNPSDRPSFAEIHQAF

Fer kinase domain = format: biochemical, mouse; conditions: sheet "Fer"
EPHB1 kinase domain = format: biochemical, human; conditions: for Screen: sheet EPHB1, effect of the variant peptide relative to its reference peptide in the pTyr-Var library screen (enrichment scores)
[1] = variant peptide versus its reference peptide in the pTyr-Var library screen
[2] = effect of variant peptide relative to its reference peptide in the pTyr-Var library screen (enrichment scores)
[3] = fig5-data2, sheet "Abl", Screen for the variant/reference peptide pair, pTyr-Var library
[4] = sheet "Abl", effect of variant peptide relative to its reference peptide in pTyr-Var library screen (enrichment)
[5] = variant peptide relative to its reference peptide, pTyr-Var library screen enrichment
[6] = effect of the variant peptide relative to its reference peptide in the pTyr-Var library screen
[7] = value of the variant peptide against its reference peptide in the pTyr-Var library screen with Fer

In the case of AEARMYGVLPW [PLP1_Y207_D203E], the Screen (c-Src kinase domain; [1]) is reported as -0.462 and the Screen (EPHB2 kinase domain; [2]) is reported as -1.308.
AFQGKYTPSGQ [ALDOA_Y343_C339Y_YF] was tested, and the Screen (c-Abl kinase domain; [3]) was -0.08587.
With CDFKKYGKGLR [ZNF445_Y433_Y428C_YF] the Screen (c-Abl kinase domain; [4]) was 1.206.
With CSEEMYCLMLQ [RET_Y981_R982C] the Screen (c-Src kinase domain; [1]) was 1.894 and the Screen (Fer kinase domain; [5]) was 3.517.
DCLASYLDKVR [KRT14_Y129_R125C] gave a Screen (c-Abl kinase domain; [3]) of 1.479.
In the case of DFTSRYLSASD [PKHD1_Y828_N830S], the Screen (c-Abl kinase domain; [3]) is reported as 0.6568.
DGQVNYEELVQ [CALM1_Y139_F142L] showed a Screen (EPHB1 kinase domain) of -0.5322.
DGQVNYEGFVQ [CALM1_Y139_E141G] showed a Screen (EPHB1 kinase domain) of -0.1972.
Sequence DLEKTYNTFRS [B4GALNT2_Y538_A533D_YF] has a Screen (c-Src kinase domain; [6]) of -0.01989.
Sequence DPHECYAKVFN [ALB_Y394_D399N] has a Screen (c-Abl kinase domain; [3]) of -0.4574.
Sequence EDAHHYLCKEV [JAK2_Y382_A377E] has a Screen (c-Abl kinase domain; [3]) of -1.246.
For EEETDYTPVWC [UROD_Y30_G25E], the Screen (c-Abl kinase domain; [4]) was 0.6447.
Sequence EPAVLYNLKER [MYH7_Y103_D107E] has a Screen (c-Abl kinase domain; [3]) of -0.8606.
Sequence EPFEVYRIVPE [IRF8_Y110_K108E_YF] has a Screen (c-Src kinase domain; [6]) of 2.655.
Work on ERDTVYSSSGV [NELL2_Y350_N347D] yielded a Screen (c-Src kinase domain; [1]) of 1.43.
ERIELYELDKK [PMM2_Y145_F144L] was tested, and the Screen (c-Abl kinase domain; [3]) was 0.1245.
Work on FDGGCYEQLFV [MC4R_Y41_S36Y_YF] yielded a Screen (c-Src kinase domain; [6]) of 0.4972 and a Screen (Fer kinase domain; [7]) of 0.1035.
Sequence FFFDLYGGEKF [PTPN11_Y66_D61Y_YF] has a Screen (c-Src kinase domain; [1]) of -1.282.
With FQKNSYSEELR [LMNA_Y211_I210S] the Screen (c-Src kinase domain; [6]) was -2.048.
FSALDYKIFFF [WDPCP_Y210_L205F_YF] gave a Screen (c-Abl kinase domain; [4]) of -1.647.
With FSPCDYQPCLA [TNS1_Y798_Y796C_YF] the “Screen (variant relative to reference peptide, measured in the pTyr-Var library screen)” value (EPHB1 kinase domain; sheet "EPHB1", variant seq vs reference seq, bacterial peptide display enrichment) was 3.912 and the Screen (EPHB2 kinase domain; effect of the variant relative to its reference peptide in the pTyr-Var library screen) was 3.039.
Work on FTNELYMMMRD [FGFR1_Y730_C725Y_YF] yielded a Screen (EPHB1 kinase domain) of 0.7713 and a Screen (EPHB2 kinase domain; [2]) of 0.5582.
GGMTEYELVVV [KRAS_Y4_K5E] showed a Screen (Fer kinase domain; [7]) of 4.104.
GHLFAYDWIRI [BEST1_Y227_S231R_YF] gave a Screen (Fer kinase domain; [7]) of -0.2857.
GITTGYLVLKE [DNMT3B_Y588_A585T] was tested, and the Screen (c-Abl kinase domain; [3]) was 1.643.
GKVADYIPQLP [GLS_Y249_A254P] gave a Screen (c-Abl kinase domain; [3]) of 0.08452.
GRDVIYKGFED [NFU1_Y194_G190R] showed a Screen (c-Src kinase domain; [1]) of -0.4839.
Work on GVSFIYTIDGS [DCX_Y105_R102S_YF] yielded a Screen (c-Src kinase domain; [6]) of 0.9806 and a Screen (c-Abl kinase domain; [3]) of -0.05601.
HESEIYGKVCF [CSRP3_Y57_C58G_YF] gave a Screen (c-Src kinase domain; [6]) of -0.5157 and a Screen (Fer kinase domain; [7]) of 1.394.
For HFVFFYSFLLK [PTEN_Y178_R173H_YF], the Screen (c-Src kinase domain; [1]) was 0.679.
HGQVNYEEFVQ [CALM2_Y139_D134H] gave a Screen (EPHB1 kinase domain) of 1.863.
In the case of HHFAAYFQQGD [GPI_Y351_R347H], the Screen (c-Abl kinase domain; [3]) is reported as 0.4221.
HSKGIYFVQLE [MGAT4B_Y262_Q257H_YF] was tested, and the Screen (c-Src kinase domain; [6]) was 0.1036, the Screen (c-Abl kinase domain; [3]) was -0.4742 and the Screen (EPHB2 kinase domain; [2]) was -0.5096.
IFSGIYFKPES [L2HGDH_Y102_H98Y_YF] showed a Screen (c-Src kinase domain; [6]) of 0.7627 and a Screen (EPHB1 kinase domain) of 0.7253.
Work on IGEVVYQWAVM [GRIN2A_Y502_R504W] yielded a Screen (c-Src kinase domain; [6]) of -0.09777 and a Screen (Fer kinase domain; [7]) of 2.434.
For IIEDPYFGNDF [ACP1_Y132_S137F_YF], the Screen (c-Src kinase domain; [6]) was 0.7844.
In the case of IKKLIYVFLVI [JAGN1_Y42_H44Y_YF], the Screen (c-Abl kinase domain; [3]) is reported as 0.0101.
INQGPYENHSV [ATP6V1B1_Y462_R465H] was tested, and the Screen (Fer kinase domain; [7]) was 4.636.
With IVLRSYPASDH [NID2_Y449_G453D] the Screen (c-Abl kinase domain; [3]) was 0.09357.
IWGKKYPTCNS [PTPRZ1_Y53_N48I] was tested, and the Screen (c-Abl kinase domain; [3]) was 0.4141.
KAIMTYVFSFF [ACTN4_Y260_S262F_YF] showed a Screen (c-Abl kinase domain; [3]) of -1.213.
KCLAVYQAGAR [APOE_Y180_R176C] showed a Screen (c-Src kinase domain; [6]) of 2.645.
In the case of KEAQVYQAFRL [SUCLG2_Y343_K347R], the Screen (c-Src kinase domain; [1]) is reported as 0.6304 and the Screen (Fer kinase domain; [5]) is reported as 0.58.
In the case of KFDLMYAKLAF [TUBA1A_Y399_R402L], the Screen (c-Src kinase domain; [1]) is reported as 2.907.
In the case of KFDLMYAKRAF [TUBA3E_Y399_W402R], the Screen (c-Src kinase domain; [1]) is reported as -2.285 and the Screen (Fer kinase domain; [5]) is reported as -3.735.
In the case of KICDWYQRQRP [KRT14_Y151_R148C], the Screen (c-Abl kinase domain; [3]) is reported as 1.628.
In the case of KNEVLYDEENH [ARFGEF1_Y314_G316E], the Screen (c-Abl kinase domain; [3]) is reported as -0.7157.
Sequence KRNSLYSFSDH [CCDC82_Y331_Q327R] has a Screen (c-Src kinase domain; [6]) of -1.645 and a Screen (Fer kinase domain; [7]) of -2.294.
KSDVMYTDWKK [ORM1_Y175_V174M] gave a Screen (c-Src kinase domain; [1]) of -1.392.
In the case of KVALLYKPFFF [POLE_Y100_P99L_YF], the Screen (c-Src kinase domain; [1]) is reported as 1.635.
Sequence LAIELYVVVCK [RHO_Y136_R135L] has a Screen (EPHB1 kinase domain) of 1.06 and a Screen (EPHB2 kinase domain; [2]) of 0.6623.
LCHELYNTIRD [PBRM1_Y54_V49L] gave a Screen (c-Src kinase domain; [1]) of 1.3.
